Consider 21 compounds from US8846704B2, “Thiopyrimidine-based compounds and uses thereof” (YM Biosciences Austraila Pty Ltd, priority 2007, dated 2014).

Where only a bound is given, the exact number is not on record here.

Common to all, as to format: cell-based
Experiment [1] addresses T1, BaF3 TELJAK2 cells (BafT_J2) (Homo sapiens, UniProt O60674).
T1 construct: fused on or other part: TEL (ETV6) N-terminal part, coding nucleotides 1-487, serves as the oligomerising partner; It is fused through a Sal I site to the JAK2 kinase domain and expressed from pTRE2 in BaF3 cells bearing pTET-off; P41212 (Transcription factor ETV6)
Put plainly: Cellular screening, BaF3 TEL:JAK2 cells, Alamar Blue. To be noted: 40 hr, read-out: BafT_J2 IC50_nM. An outline of the steps:
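Tet-off BaF3 cells carrying a TEL (nt 1-487)–JAK2 kinase-domain fusion, grown factor-independently in DMEM with 10% Tet-approved FBS without WEHI 3B medium. Compounds were diluted to 20 μM in screening plates, and cells (50,000–200,000 cell/mL at 1.1×) were incubated 40 hr at 37 °C, 5% CO2. Alamar Blue was then added for 4-6 hours; read at 544 nm.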

Experiment [2] has as its target T2, BaF3 TELJAK3 cells (Homo sapiens, UniProt P52333).
T2 construct: fused on or other part: TEL (ETV6) N-terminal part, coding nucleotides 1-487, serves as the oligomerising partner; It is fused through a Sal I site to the JAK3 kinase domain and expressed from pTRE2 in BaF3 cells bearing pTET-off; P41212 (Transcription factor ETV6)
T2 sequence (P52333 1-1124): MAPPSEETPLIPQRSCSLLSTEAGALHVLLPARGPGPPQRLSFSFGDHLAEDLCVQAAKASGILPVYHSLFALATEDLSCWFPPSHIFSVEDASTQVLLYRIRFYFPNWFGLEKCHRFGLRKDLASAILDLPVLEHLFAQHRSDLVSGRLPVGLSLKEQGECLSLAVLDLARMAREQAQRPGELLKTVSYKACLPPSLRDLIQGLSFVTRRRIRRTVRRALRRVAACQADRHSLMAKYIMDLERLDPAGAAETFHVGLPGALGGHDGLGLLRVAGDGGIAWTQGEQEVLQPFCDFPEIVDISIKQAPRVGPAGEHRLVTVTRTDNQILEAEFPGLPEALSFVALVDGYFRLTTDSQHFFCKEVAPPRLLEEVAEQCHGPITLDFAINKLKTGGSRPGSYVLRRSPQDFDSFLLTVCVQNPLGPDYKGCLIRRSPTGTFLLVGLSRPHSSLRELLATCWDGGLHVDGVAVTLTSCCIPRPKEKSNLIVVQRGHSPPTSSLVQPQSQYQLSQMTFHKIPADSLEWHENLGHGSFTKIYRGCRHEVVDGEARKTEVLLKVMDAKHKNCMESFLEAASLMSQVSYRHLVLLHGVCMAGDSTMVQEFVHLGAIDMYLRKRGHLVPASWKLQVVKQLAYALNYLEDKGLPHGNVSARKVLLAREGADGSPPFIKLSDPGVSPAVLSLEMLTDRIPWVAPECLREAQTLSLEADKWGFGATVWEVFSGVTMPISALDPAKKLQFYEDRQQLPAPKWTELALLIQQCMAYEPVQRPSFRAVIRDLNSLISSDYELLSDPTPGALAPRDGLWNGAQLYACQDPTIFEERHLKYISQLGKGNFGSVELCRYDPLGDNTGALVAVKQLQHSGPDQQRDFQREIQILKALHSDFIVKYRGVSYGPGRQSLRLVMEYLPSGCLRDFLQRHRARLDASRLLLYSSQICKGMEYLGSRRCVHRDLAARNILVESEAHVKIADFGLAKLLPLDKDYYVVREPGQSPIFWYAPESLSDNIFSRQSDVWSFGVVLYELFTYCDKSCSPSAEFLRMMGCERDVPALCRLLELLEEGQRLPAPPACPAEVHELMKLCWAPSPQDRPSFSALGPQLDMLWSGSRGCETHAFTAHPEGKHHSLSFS
Put plainly: Cellular screening, BaF3 TEL:JAK3 cells, Alamar Blue. To be noted: 40 hr, read-out: BafT_J3 IC50_nM. An outline of the steps: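 BaF3 cells carrying pTET-off and a TEL–JAK3 kinase-domain fusion, selected for growth-factor independence, were grown in DMEM with 10% Tet-approved FBS without WEHI 3B medium. Cells were exposed to compounds for 40 h at 37 °C, 5% CO2. Viability was read with Alamar Blue (4–6 h) at 544 nm.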
Background: The colour change of resazurin is a common sign of viable cells or microbes.

Experiment [3] relates to BaF3 wild-type cells. Put plainly: Cellular screening, BaF3 wild-type cells, Alamar Blue. To be noted: Mus musculus, 40 hr, read-out: BAF3wt IC50_nM. In short, it runs like this: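 Cells were cultured in DMEM with 10% FCS and 10% WEHI 3B conditioned medium, and suspensions were prepared at 1.1× final (50,000–200,000 cells/mL). Compounds from 20 μM dilution plates were added at 10× final and incubated for 40 hr at 37° C, 5% CO2. Alamar Blue was then added for 4–6 hours and read at 544 nm.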

T1 sequence (O60674 whole entry, change not shown, the tested form may be a part): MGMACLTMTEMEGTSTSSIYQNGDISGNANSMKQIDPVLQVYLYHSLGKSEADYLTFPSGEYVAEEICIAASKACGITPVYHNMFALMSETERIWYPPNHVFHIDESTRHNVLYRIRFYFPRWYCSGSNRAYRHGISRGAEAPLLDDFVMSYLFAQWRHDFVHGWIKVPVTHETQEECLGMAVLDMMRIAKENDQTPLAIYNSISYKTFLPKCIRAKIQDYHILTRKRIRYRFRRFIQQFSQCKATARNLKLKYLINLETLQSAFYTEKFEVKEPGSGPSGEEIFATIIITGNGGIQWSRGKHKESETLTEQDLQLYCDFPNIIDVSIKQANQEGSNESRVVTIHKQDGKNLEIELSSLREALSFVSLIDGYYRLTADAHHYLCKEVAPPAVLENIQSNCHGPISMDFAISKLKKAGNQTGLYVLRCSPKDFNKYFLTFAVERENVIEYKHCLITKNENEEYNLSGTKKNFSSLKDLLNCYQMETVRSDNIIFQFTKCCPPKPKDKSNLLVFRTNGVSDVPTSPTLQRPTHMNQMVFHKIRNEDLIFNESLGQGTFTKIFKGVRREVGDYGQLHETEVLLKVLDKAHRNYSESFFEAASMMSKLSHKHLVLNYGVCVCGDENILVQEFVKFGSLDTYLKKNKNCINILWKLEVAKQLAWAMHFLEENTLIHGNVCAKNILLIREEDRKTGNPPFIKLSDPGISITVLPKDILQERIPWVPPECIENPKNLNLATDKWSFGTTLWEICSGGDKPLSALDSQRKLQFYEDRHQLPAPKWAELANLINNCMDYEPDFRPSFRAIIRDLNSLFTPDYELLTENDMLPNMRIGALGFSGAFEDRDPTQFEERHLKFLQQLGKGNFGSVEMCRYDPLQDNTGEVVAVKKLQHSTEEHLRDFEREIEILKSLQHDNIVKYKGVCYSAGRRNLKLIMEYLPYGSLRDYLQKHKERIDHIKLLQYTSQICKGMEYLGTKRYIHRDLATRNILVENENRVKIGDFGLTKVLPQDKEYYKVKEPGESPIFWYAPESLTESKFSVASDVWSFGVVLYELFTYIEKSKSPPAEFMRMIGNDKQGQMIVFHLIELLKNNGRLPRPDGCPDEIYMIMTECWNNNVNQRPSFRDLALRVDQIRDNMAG

Consider `C=CC(=O)Nc1cccc(Nc2nccc(SC)n2)c1` [Compound 7, N-(3-(4-(methylthio)pyrimidin-2-ylao)phenyl)acrylamide], for which the GI50 in experiment [1] was less than 20 µM; in experiment [2] it was less than 5 µM. In experiment [3], the IC50 is less than 20 µM.

Take `Cc1cnc(Nc2ccc(N3CCOCC3)cc2)nc1Sc1ccc(N2C(=O)COCC2=O)cc1` [Compound 190, 4-(4-(5-methyl-2-(4-morpholinophenylao)pyrimidin-4-ylthio)phenyl)morpholine-3,5-dione]: the GI50 in experiment [1] and in experiment [2] was more than 20 µM throughout. In addition, in experiment [3], the IC50 was more than 20 µM.

As for `Cc1cnc(Nc2ccc(O)cc2)nc1Sc1ccc(N)cc1` [Compound 191, 4-(4-(4-aophenylthio)-5-methylpyrimidin-2-ylao)phenol], the GI50 in experiment [1] and in experiment [2] was less than 5 µM throughout. In addition, in experiment [3], the IC50 was less than 5 µM.

For the compound `Cc1cnc(Nc2cccc(S)c2)nc1Sc1ccc(NC(=O)CCl)cc1` [Compound 195, 2-chloro-N-(4-(2-(3-mercaptophenylao)-5-methylpyrimidin-4-ylthio)phenyl)acetamide], the GI50 in experiment [1] is more than 20 µM; in experiment [2], less than 20 µM. Further, the IC50 in experiment [3] is more than 20 µM.

For the compound `Cc1cnc(Nc2ccc(N3CCOCC3)cc2)nc1Sc1ccc(N2CCSCC2=O)cc1` [Compound 197, 4-(4-(5-methyl-2-(4-morpholinophenylao)pyrimidin-4-ylthio)phenyl)thiomorpholin-3-one], the GI50 in experiment [1] and in experiment [2] was more than 20 µM each time. Also, the IC50 in experiment [3] is more than 20 µM.

With `N#Cc1c(N)ncn1Cc1cccc(Sc2ccnc(Nc3ccc(N4CCOCC4)cc3)n2)c1` [Compound 199, 4-ao-1-(3-(2-(4-morpholinophenylao)pyrimidin-4-ylthio)benzyl)-1H-imiazole-5-carbonitrile], the GI50 in experiment [1] is less than 5 µM; in experiment [2], less than 20 µM. Besides, the IC50 in experiment [3] was less than 20 µM.

Take `N#Cc1ncn(Cc2ccc(Sc3ccnc(Nc4ccc(N5CCOCC5)cc4)n3)cc2)c1N` [Compound 202, 5-ao-1-(4-(2-(4-morpholinophenylao)pyrimidin-4-ylthio)benzyl)-1H-imidazole-4-carbonitrile]: the GI50 in experiment [1] and in experiment [2] was less than 5 µM in each case. For the same compound, the IC50 in experiment [3] is less than 20 µM.

Turning to `N#Cc1c(N)ncn1Cc1ccc(Sc2ccnc(Nc3ccc(N4CCOCC4)cc3)n2)cc1` [Compound 203, 4-ao-1-(4-(2-(4-morpholinophenylao)pyrimidin-4-ylthio)benzyl)-1H-imidazole-5-carbonitrile], the GI50 in experiment [1] and in experiment [2] was less than 1 µM each time. Moreover, the IC50 in experiment [3] was less than 1 µM.

On to `c1cc(Sc2ccc(Cn3cncn3)cc2)nc(Nc2ccc(N3CCOCC3)cc2)n1` [Compound 204, 4-(4-((1H-1,2,4-triazol-1-yl)methyl)phenylthio)-N-(4-morpholinophenyl)pyrimidin-2-ae], for which the results for the GI50 in experiment [1] and in experiment [2] were less than 5 µM and less than 20 µM, respectively. Moreover, in experiment [3], the IC50 is less than 20 µM.

Turning to `NC(=O)c1ccc(Sc2ccnc(Nc3ccc(N4CCOCC4)cc3)n2)cc1` [Compound 207, 4-(2-(4-morpholinophenylao)pyrimidin-4-ylthio)benzamide], the GI50 in experiment [1] and in experiment [2] was more than 20 µM throughout.

In the case of `N#CCc1ccc(Sc2ccnc(Nc3ccc(N4CCOCC4)cc3)n2)cc1` [Compound 210, 2-(4-(2-(4-morpholinophenylao)pyrimidin-4-ylthio)phenyl)acetonitrile], the GI50 in experiment [1] and in experiment [2] was more than 20 µM each time. For the same compound, the IC50 in experiment [3] was more than 20 µM.

As to `Cc1cnc(Nc2ccc(N3CCOCC3)cc2)nc1Sc1cccc(CO)c1` [Compound 212, (3-(5-methyl-2-(4-morpholinophenylao)pyrimidin-4-ylthio)phenyl)methanol], the GI50 in experiment [1] and in experiment [2] was more than 20 µM each time. Further, the IC50 in experiment [3] is more than 20 µM.

Turning to `CON(C)C(=O)c1ccc(Sc2nc(Nc3ccc(N4CCOCC4)cc3)ncc2C)cc1` [Compound 218, N-methoxy-N-methyl-4-(5-methyl-2-(4-morpholinophenylao)pyrimidin-4-ylthio)benzamide], the results for the GI50 in experiment [1] and in experiment [2] were more than 20 µM and less than 20 µM, respectively. Besides, the IC50 in experiment [3] was more than 20 µM.

Consider `Cc1cnc(Nc2ccc(N3CCOCC3)cc2)nc1Sc1ccc(C=O)cc1` [Compound 219, 4-(5-methyl-2-(4-morpholinophenylao)pyrimidin-4-ylthio)benzaldehyde], for which the GI50 in experiment [1] and in experiment [2] was less than 5 µM throughout. The IC50 in experiment [3] was less than 5 µM.

Regarding `Cc1cnc(Nc2ccc(N3CCOCC3)cc2)nc1Sc1ccc(CO)cc1` [Compound 220, (4-(5-methyl-2-(4-morpholinophenylao)pyrimidin-4-ylthio)phenyl)methanol], the GI50 in experiment [1] and in experiment [2] was less than 5 µM each time. Moreover, the IC50 in experiment [3] was less than 5 µM.

`Cc1cnc(Nc2ccc(N3CCOCC3)cc2)nc1Sc1ccc(CC#N)cc1` [Compound 222, 2-(4-(5-methyl-2-(4-morpholinophenylao)pyrimidin-4-ylthio)phenyl)acetonitrile]: the GI50 in experiment [1] and in experiment [2] was more than 20 µM in each case. Further, in experiment [3], the IC50 is more than 20 µM.

`Cc1cnc(Nc2ccc(N3CCOCC3)cc2)nc1Sc1ccc(C(C#N)N2CCOCC2)cc1` (stereo not shown) [Compound 223, 2-(4-(5-methyl-2-(4-morpholinophenylao)pyrimidin-4-ylthio)phenyl)-2-morpholinoacetonitrile]: the GI50 in experiment [1] is less than 5 µM; in experiment [2] it was less than 20 µM. Moreover, the IC50 in experiment [3] was less than 5 µM.

Regarding `Cc1cnc(Nc2ccc(N3CCOCC3)cc2)nc1Sc1ccc(C(=O)N2CCCC2)cc1` [Compound 224, (4-(5-methyl-2-(4-morpholinophenylao)pyrimidin-4-ylthio)phenyl)(pyrrolidin-1-yl)methanone], the GI50 in experiment [1] and in experiment [2] was more than 20 µM in each case. Further, in experiment [3], the IC50 is less than 20 µM.

For the compound `Cc1cnc(Nc2ccc(N3CCOCC3)cc2)nc1Sc1ccc(C(C#N)N2CCN(C)CC2)cc1` (stereo not shown) [Compound 225, 2-(4-(5-methyl-2-(4-morpholinophenylao)pyrimidin-4-ylthio)phenyl)-2-(4-methylpiperazin-1-yl)acetonitrile], the GI50 in experiment [1] and in experiment [2] was less than 5 µM throughout. Further, the IC50 in experiment [3] was less than 5 µM.

In the case of `Cc1cnc(Nc2cccc(NS(C)(=O)=O)c2)nc1Sc1ccc(CO)cc1` [Compound 226, N-(3-(4-(4-(hydroxymethyl)phenylthio)-5-methylpyrimidin-2-ylao)phenyl)methanesulfonamide], the GI50 in experiment [1] and in experiment [2] was less than 5 µM throughout.

`Cc1cnc(Nc2ccc(N3CCOCC3)cc2)nc1Sc1ccc(NC2CCOC2=O)cc1` (stereo not shown) [Compound 228, 3-(4-(5-methyl-2-(4-morpholinophenylao)pyrimidin-4-ylthio)phenylao)dihydrofuran-2(3H)-one]: the GI50 in experiment [1] and in experiment [2] was more than 20 µM throughout. The IC50 in experiment [3] is more than 20 µM.
